The numbers were not newly measured in patent publication US20110045130A1, “BIOACTIVE PEPTIDE PRODUCTION” (priority 2007, published 2011), which cites them from elsewhere.

Series [1] has as its target angiotensin converting enzyme (ACE) (Homo sapiens, UniProt P12821). Conditions: in vitro effect on ACE activity; relatively low IC50 values.
Series [2] concerns spontaneously hypertensive rats. To be noted: tripeptides derived from lactic acid bacteria fermented milk.

angiotensin converting enzyme (ACE), sequence (P12821 30-1306, species assumed): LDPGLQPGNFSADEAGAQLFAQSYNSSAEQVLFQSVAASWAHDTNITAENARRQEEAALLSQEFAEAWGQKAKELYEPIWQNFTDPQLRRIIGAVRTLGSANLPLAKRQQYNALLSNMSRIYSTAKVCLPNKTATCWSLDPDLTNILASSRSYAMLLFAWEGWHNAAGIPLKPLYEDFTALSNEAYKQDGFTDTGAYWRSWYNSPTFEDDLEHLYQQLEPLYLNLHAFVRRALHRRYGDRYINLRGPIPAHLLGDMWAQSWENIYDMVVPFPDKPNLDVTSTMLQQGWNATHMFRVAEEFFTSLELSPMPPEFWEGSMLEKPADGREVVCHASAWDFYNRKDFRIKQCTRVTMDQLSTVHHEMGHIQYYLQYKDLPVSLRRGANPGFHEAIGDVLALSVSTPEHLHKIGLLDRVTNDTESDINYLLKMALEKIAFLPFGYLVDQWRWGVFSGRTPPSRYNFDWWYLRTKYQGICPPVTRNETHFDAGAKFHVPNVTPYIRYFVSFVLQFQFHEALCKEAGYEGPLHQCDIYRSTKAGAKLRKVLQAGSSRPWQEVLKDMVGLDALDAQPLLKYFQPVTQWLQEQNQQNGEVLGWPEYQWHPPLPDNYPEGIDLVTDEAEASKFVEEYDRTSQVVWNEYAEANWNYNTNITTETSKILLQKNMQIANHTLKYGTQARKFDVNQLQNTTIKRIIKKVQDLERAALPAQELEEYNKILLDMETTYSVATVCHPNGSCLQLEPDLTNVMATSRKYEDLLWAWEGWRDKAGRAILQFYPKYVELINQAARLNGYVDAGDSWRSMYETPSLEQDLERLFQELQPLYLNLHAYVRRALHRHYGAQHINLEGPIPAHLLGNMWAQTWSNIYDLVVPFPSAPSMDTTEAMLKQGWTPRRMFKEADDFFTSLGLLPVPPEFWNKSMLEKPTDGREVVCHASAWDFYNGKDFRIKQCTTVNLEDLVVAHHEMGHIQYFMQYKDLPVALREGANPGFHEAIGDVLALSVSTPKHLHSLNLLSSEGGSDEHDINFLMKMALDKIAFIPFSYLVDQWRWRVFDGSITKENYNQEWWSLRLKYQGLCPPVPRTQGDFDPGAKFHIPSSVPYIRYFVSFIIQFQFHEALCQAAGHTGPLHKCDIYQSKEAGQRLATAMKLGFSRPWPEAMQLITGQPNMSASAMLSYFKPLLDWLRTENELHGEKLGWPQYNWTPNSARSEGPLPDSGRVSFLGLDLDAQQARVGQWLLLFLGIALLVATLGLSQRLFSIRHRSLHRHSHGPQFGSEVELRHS

Consider Val-Pro-Pro [VPP], for which the ACE inhibiting activity result in series [1] is reported as “Strong ACE inhibiting activities”. Moreover, the antihypertensive effects result in series [2] is on record as “confirmed”.
As to Leu-Pro-Pro [LPP], the ACE inhibiting activity entry in series [1] was “Strong ACE inhibiting activities”.
For Ile-Pro-Pro [IPP], in series [1], the ACE inhibiting activity result is listed as “Strong ACE inhibiting activities”. For the same substance, the antihypertensive effects entry in series [2] is “confirmed”.
